Test results: patent US8362000B2, “Azetidinyl diamides as monoacylglycerol lipase inhibitors” (Janssen Pharmaceutica NV, priority 2009, dated 2013)
Where a chain is given by its changes, count along the chain named. pIC50, pKd: −log10 of the molar value. Like-named read-outs stand apart in the source and are kept apart here.

Legend:
[1] = target: T1, purified wild type MGL (wt-MGLL 6H-11-313) (Homo sapiens, UniProt Q99685)
T1 sequence (Q99685 1-303): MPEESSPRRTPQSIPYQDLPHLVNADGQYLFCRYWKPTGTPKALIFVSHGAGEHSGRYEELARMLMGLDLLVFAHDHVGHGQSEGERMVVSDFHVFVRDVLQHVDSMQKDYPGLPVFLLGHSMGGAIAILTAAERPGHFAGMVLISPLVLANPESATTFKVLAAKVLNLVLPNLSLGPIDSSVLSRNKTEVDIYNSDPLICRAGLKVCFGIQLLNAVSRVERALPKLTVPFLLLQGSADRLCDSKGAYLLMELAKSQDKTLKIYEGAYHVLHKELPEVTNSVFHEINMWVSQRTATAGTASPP

mutant MGL = target: T2, mutant MGL (Homo sapiens, UniProt Q99685, L169S/L176S); assay: MGL ThermoFluor assay - mutant; type: binding
T2 sequence (Q99685 1-303 L169S/L176S): T1 sequence (Q99685 1-303) with L169S, L176S

[2] = compound concentration measured by qNMR, read-out: MGL mutant ThermoFluor qKd (using qNMR conc.)
[3] = ThermoFluor, compound concentration measured by qNMR, read-out: MGL mutant ThermoFluor qKd (using qNMR conc.)
[4] = ThermoFluor thermal stability binding assay, read-out: MGL mutant ThermoFluor Kd
[5] = ThermoFluor concentration-response, read-out: MGL mutant ThermoFluor Kd

pIC50 [1]	pKd (mutant MGL; [2])	pKd (mutant MGL; [3])	pKd (mutant MGL; [4])	pKd (mutant MGL; [5])	SMILES
5.82	6.05	–	–	–	O=C(c1cccnc1)c1c[nH]c2cc(C(=O)N3CC(N4CCN(C(=O)c5nccs5)CC4)C3)ccc12 [Cpd 950]
6.27	6.93	–	–	–	O=C(c1ccc2c(N3CCSCC3)ncnc2c1)N1CC(N2CCN(C(=O)c3nccs3)CC2)C1 [Cpd 951, 7-({3-[4-(1,3-Thiazol-2-ylcarbonyl)piperazin-1-yl]azetidin-1-yl}carbonyl)-4-thiomorpholin-4-ylquinazoline]
7.92	–	7.72	–	–	CC1(C)c2ccccc2-c2ccc(C(=O)N3CC(N4CCN(C(=O)c5nccs5)CC4)C3)cc21 [Cpd 952]
< 4.78	–	< 4.57	–	–	C[C@@H]1CN(C(=O)c2nccs2)C[C@H](C)N1C1CN(C(=O)c2cc3ccc(C(F)(F)F)cc3s2)C1 [Cpd 953]
5.56	–	5.46	–	–	C[C@@H]1CN(C2CN(C(=O)c3cc4ccc(C(F)(F)F)cc4s3)C2)C[C@H](C)N1C(=O)c1nccs1 [Cpd 954, (2R,6S)-2,6-Dimethyl-1-(1,3-thiazol-2-ylcarbonyl)-4-(1-{[6-(trifluoromethyl)-1-benzothiophen-2-yl]carbonyl}azetidin-3-yl)piperazine]
> 8.30	–	–	8.10	–	O=C(c1ccc(OCc2cccc(Cl)c2)cc1)N1CC(N2CCN(C(=O)c3nccs3)CC2)C1 [Cpd 957]
5.77	5.50	–	–	–	O=C(c1ccc(CNc2cccc(Cl)c2)cc1)N1CC(N2CCN(C(=O)C(F)(F)F)CC2)C1 [Cpd 964]
8.05	–	–	7.36	–	O=C(c1ccc(OCc2ccc3ccccc3n2)cc1)N1CC(N2CCN(C(=O)c3nccs3)CC2)C1 [Cpd 967]
6.75	5.75	–	–	–	O=C(c1ccc(SCc2cccc(C(F)(F)F)c2)cc1)N1CC(N2CCN(C(=O)C(F)(F)F)CC2)C1 [Cpd 974]
6.24	–	–	–	5.74	O=C(c1ccc(CS(=O)(=O)c2cccc(C(F)(F)F)c2)cc1)N1CC(N2CCN(C(=O)c3nccs3)CC2)C1 [Cpd 976, 1-(1,3-Thiazol-2-ylcarbonyl)-4-(1-{[4-({[3-(trifluoromethyl)phenyl]sulfonyl}methyl)phenyl]carbonyl}azetidin-3-yl)piperazine]
6.19	5.94	–	–	–	O=C(c1ccc(OCc2cncc(Cl)c2)cc1)N1CC(N2CCN(C(=O)C(F)(F)F)CC2)C1 [Cpd 979]
5.17	–	–	5.30	–	O=C(c1nccs1)N1CCN(C2CN(C(=O)c3cccc4[nH]c(Cc5ccccc5)nc34)C2)CC1 [Cpd 980]
5.11	–	–	–	6.25	O=C(c1ccc2c(c1)C(Cc1cccc(C(F)(F)F)c1)(Cc1cccc(C(F)(F)F)c1)C(=O)N2)N1CC(N2CCN(C(=O)c3nccs3)CC2)C1 [Cpd 992]
7.89	–	–	–	8.70	O=C(c1ccc2c(c1)CCN2Cc1ccccc1)N1CC(N2CCN(C(=O)c3nccs3)CC2)C1 [Cpd 994, 1-Benzyl-5-({3-[4-(1,3-thiazol-2-ylcarbonyl)piperazin-1-yl]azetidin-1-yl}carbonyl)-2,3-dihydro-1H-indole]
> 8.30	–	–	–	8.70	O=C(c1ccc(Cc2cccc(C(F)(F)F)c2)cc1)N1CC(N2CCN(C(=O)c3nccs3)CC2)C1 [Cpd 995]
6.63	–	–	–	7.08	O=C(c1cccc(CNc2ccccc2F)c1)N1CC(N2CCN(C(=O)c3nccs3)CC2)C1 [Cpd 1005]
> 8.30	–	–	–	7.05	Cc1c(Cc2ccc(C(F)(F)F)cc2)cccc1C(=O)N1CC(N2CCN(C(=O)c3nccs3)CC2)C1 [Cpd 1008]
6.79	–	–	–	6.12	Cc1c(Cc2ccc(C(F)(F)F)cc2)cccc1C(=O)N1CC(N2CCN(C(=O)c3ccc[nH]3)CC2)C1 [Cpd 1013]
6.59	–	–	–	6.04	Cc1c(Cc2ccc(C(F)(F)F)cc2)cccc1C(=O)N1CC(N2CCN(C(=O)c3ccns3)CC2)C1 [Cpd 1014]
6.11	–	–	–	5.93	Cc1c(Cc2ccc(C(F)(F)F)cc2)cccc1C(=O)N1CC(N2CCN(C(=O)c3cncs3)CC2)C1 [Cpd 1015]

pIC50 [1]	pKd (mutant MGL; [2])	pKd (mutant MGL; [3])	pKd (mutant MGL; [4])	pKd (mutant MGL; [5])	SMILES
7.00	–	–	–	6.68	O=C(c1nccs1)N1CCN(C2CN(C(=O)c3nn(-c4ccc(Cl)cc4Cl)c4c3CCC/C4=C\c3ccc(Cl)cc3)C2)CC1 [Cpd 1018]
7.80	9.00	–	–	–	Cn1cc(Cc2ccc(F)cc2)c2ccc(C(=O)N3CC(N4CCN(C(=O)c5nccs5)CC4)C3)cc21 [Cpd 1026]
> 8.30	8.22	–	–	–	O=C(c1ccc2c(cnn2Cc2ccc(F)cc2)c1)N1CC(N2CCN(C(=O)c3nccs3)CC2)C1 [Cpd 1029, 1-(4-Fluorobenzyl)-5-({3-[4-(1,3-thiazol-2-ylcarbonyl)piperazin-1-yl]azetidin-1-yl}carbonyl)-1H-indazole]
7.89	7.48	–	–	–	O=C(c1ccc2nn(Cc3ccc(F)cc3)cc2c1)N1CC(N2CCN(C(=O)c3nccs3)CC2)C1 [Cpd 1030, 2-(4-Fluorobenzyl)-5-({3-[4-(1,3-thiazol-2-ylcarbonyl)piperazin-1-yl]azetidin-1-yl}carbonyl)-2H-indazole]
6.95	6.87	–	–	–	CN(C(=O)Cn1ccc2cc(C(=O)N3CC(N4CCN(C(=O)c5nccs5)CC4)C3)ccc21)c1ccccc1 [Cpd 1031]
5.52	5.96	–	–	–	CN(C(=O)Cn1ccc2cc(C(=O)N3CC(N4CCN(C(=O)c5cscn5)CC4)C3)ccc21)c1ccccc1 [Cpd 1032]
5.34	6.00	–	–	–	O=C(Cn1ccc2cc(C(=O)N3CC(N4CCN(C(=O)c5nccs5)CC4)C3)ccc21)N1CCCC1 [Cpd 1035]
> 8.30	8.30	–	–	–	O=C(c1ccc2c(cnn2Cc2ccc(C(F)(F)F)cc2)c1)N1CC(N2CCN(C(=O)c3nccs3)CC2)C1 [Cpd 1036, 5-({3-[4-(1,3-Thiazol-2-ylcarbonyl)piperazin-1-yl]azetidin-1-yl}carbonyl)-1-[4-(trifluoromethyl)benzyl]-1H-indazole]
8.30	7.66	–	–	–	O=C(c1ccc2nn(Cc3ccc(C(F)(F)F)cc3)cc2c1)N1CC(N2CCN(C(=O)c3nccs3)CC2)C1 [Cpd 1037, 5-({3-[4-(1,3-Thiazol-2-ylcarbonyl)piperazin-1-yl]azetidin-1-yl}carbonyl)-2-[4-(trifluoromethyl)benzyl]-2H-indazole]
> 8.30	8.70	–	–	–	O=C(c1ccc2c(cnn2Cc2cccc(C(F)(F)F)c2)c1)N1CC(N2CCN(C(=O)c3nccs3)CC2)C1 [Cpd 1038, 5-({3-[4-(1,3-Thiazol-2-ylcarbonyl)piperazin-1-yl]azetidin-1-yl}carbonyl)-1-[3-(trifluoromethyl)benzyl]-1H-indazole]
8.30	8.15	–	–	–	O=C(c1ccc2nn(Cc3cccc(C(F)(F)F)c3)cc2c1)N1CC(N2CCN(C(=O)c3nccs3)CC2)C1 [Cpd 1039, 5-({3-[4-(1,3-Thiazol-2-ylcarbonyl)piperazin-1-yl]azetidin-1-yl}carbonyl)-2-[3-(trifluoromethyl)benzyl]-2H-indazole]
7.60	7.85	–	–	–	CC(c1ccccc1)n1cc2cc(C(=O)N3CC(N4CCN(C(=O)c5nccs5)CC4)C3)ccc2n1 (centres unmarked) [Cpd 1040, 2-(1-Phenylethyl)-5-({3-[4-(1,3-thiazol-2-ylcarbonyl)piperazin-1-yl]azetidin-1-yl}carbonyl)-2H-indazole]
7.72	–	6.40	–	–	O=C(COc1ccc(C(=O)N2CC(N3CCN(C(=O)c4nccs4)CC3)C2)cc1)Nc1cccc(C(F)(F)F)c1 [Cpd 1041]
5.28	–	5.30	–	–	Cc1cc(C(=O)N2CC(N3CCN(C(=O)c4nccs4)CC3)C2)c(C)n1Cc1ccc(S(N)(=O)=O)cc1 [Cpd 1042]
7.80	7.26	–	–	–	O=C(c1cnc2c(ccn2Cc2ccc(F)cc2)c1)N1CC(N2CCN(C(=O)c3nccs3)CC2)C1 [Cpd 1043, 1-(4-Fluorobenzyl)-5-({3-[4-(1,3-thiazol-2-ylcarbonyl)piperazin-1-yl]azetidin-1-yl}carbonyl)-1H-pyrrolo[2,3-b]pyridine]
6.14	6.02	–	–	–	NC(=O)c1ccc(Cn2ncc3cc(C(=O)N4CC(N5CCN(C(=O)c6nccs6)CC5)C4)ccc32)cc1 [Cpd 1044, 4-{[5-({3-[4-(1,3-Thiazol-2-ylcarbonyl)piperazin-1-yl]azetidin-1-yl]carbonyl)-1H-indazol-1-yl}methyl}benzamide]
7.68	6.72	–	–	–	N#Cc1ccc(Cn2ncc3cc(C(=O)N4CC(N5CCN(C(=O)c6nccs6)CC5)C4)ccc32)cc1 [Cpd 1045, 4-{[5-({3-[4-(1,3-Thiazol-2-ylcarbonyl)piperazin-1-yl]azetidin-1-yl]carbonyl)-1H-indazol-1-yl}methyl}benzonitrile]
6.54	7.19	–	–	–	O=C(c1ccc2c(ccn2Cc2ccncc2)c1)N1CC(N2CCN(C(=O)c3nccs3)CC2)C1 [Cpd 1046]
5.33	6.33	–	–	–	O=C(c1ccc2ccn(Cc3ccncc3)c2c1)N1CC(N2CCN(C(=O)c3nccs3)CC2)C1 [Cpd 1047]

SMILES	pIC50 [1]	pKd (mutant MGL; [2])	pKd (mutant MGL; [3])	pKd (mutant MGL; [4])	pKd (mutant MGL; [5])
O=C(c1nccs1)N1CCN(C2CN(C(=O)c3cn(Cc4ccccc4)c4ccccc34)C2)CC1 [Cpd 993]	5.82	–	–	–	6.48
